Results reported in US8952158B2, “Tricyclic compound and use thereof” (Ono Pharmaceutical Co., Ltd., priority 2004, dated 2015).

Key:
Wistar male rat [1] = assay: Competition experiment of MBR ligand (psychological stressor, number of dejection); assay type: in vivo
Protocol: Using a Wistar male rat, psychological stressor similar to that in Biological Example 2 described above was loaded. Each treatment group was set as follows: a medium was intravenously administered (treatment group 1), the compound of the present invention (the compound of Example 38) was intravenously administered at a dose of 0.1 mg/kg (treatment group 2), an MBR selective agonist (CB34) was intravenously administered at a dose of 1 mg/kg (treatment group 3), or after the compound of the present invention (the compound of Example 38) was intravenously administered at a dose of 0.1 mg/kg, an MBR selective agonist was intravenously administered at a dose of 0.1 mg/kg (treatment group 4). In each group, stressor loading was initiated 10 minutes after administration, and the number of dejection was counted one hour later (10 animals in each group).

MBR = target: T1, MBR (Rattus norvegicus, UniProt P16257); assay: Receptor binding experiment ([3H]PK11195 competition); settings: [3H]PK11195, rat membrana cerebri specimen; Cheng and Prusoff
T1 construct: A Wistar male rat was decapitated and the whole brain was extirpated, and then the cerebellum was removed; from tissue; host or cells: Wistar male rat brain (cerebellum removed), crude membrane preparation
Protocol: Affinity of the compound of the present invention for MBR was measured using a rat membrana cerebri specimen. The measuring method of the present invention has improved measurement accuracy and measurement sensitivity so as to evaluate the compound of the present invention as follows. A Wistar male rat was decapitated and the whole brain was extirpated, and then the cerebellum was removed. For the rat membrana cerebri specimen used in the binding experiment, 50 mmol/L of an ice-cold Iris-hydrochloric acid buffer (pH 7.4) was added and it was homogenized and centrifuged. After the resulting deposit was washed, it was resuspended to be prepared to about 1 mg/ml. The binding experiment was conducted using [^3H]PK11195 as an MBR selective ligand.
In the case of calculating the all binding amount in a saturation experiment, the membrane specimen, [^3H]PK11195 at several concentrations, dimethyl sulfoxide (DMSO) in a final concentration of 0.5 vol %, and 50 mmol/L of a tris-hydrochloric acid buffer (pH 7.4) were mixed (all amount 200 μl), followed by incubation at room temperature for one hour. In the case of calculating the nonspecific binding amount, […] in a final concentration of 20 ptrnol/L was added instead of DMSO, followed by incubation for one hour. […] After the filter was dried, radioactivity was measured by a liquid scintillation counter. […]

Wistar male rat [2] = assay: Study on antistress effect (1): psychological stressor, number of dejection; assay type: in vivo; settings: 30 min before stressor, counted one hour later
Protocol: Psychological stressor was loaded using a Wistar male rat (Brain Res. 1994; 641: pp. 21-28). Water was accumulated by the depth of about 10 cm in a container having a platform in the center. Thirty-minutes after a medium or the compound of the present invention (the compound of Example 38) was intravenously administered at a dose of 0.01 mg/kg or orally administered at a dose of 1 mg/kg, stressor loading was initiated, and one hour later, the number of dejection was counted (10 animals in each group). The rat administered the compound of the present invention and the rat to which the stress or was not loaded had little dejection after one hour.

[3] = system: male Sprague-Dawley (SD) rat; assay: Study on antistress effect (2): physical (restraint) stressor, number of dejection; assay type: in vivo; settings: oral 1 mg/kg, 30 min before restraint; 60 minutes after initiation of stressor loading
Protocol: Physical stressor was loaded using a male Sprague-Dawley (SD) rat (CHARLES RIVER LABORATORIES JAPAN, INC., 7 week old at being used) (Gastroenterology 1988; 94: pp. 611-622; Jpn. J. Phrmacol. 1998; 77: pp. 211-217). Thirty minutes after a medium (0.5% Tween 80 physiological saline) or the compound of the present invention (the compound of Example 38) was orally administered at a dose of 1 mg/kg, stressor loading was initiated by restraining both anterior branches of the rat with a binding band (Marvel Ltd.). Evaluation was performed by measuring the number of dejection 30 and 60 minutes after the initiation of stressor loading (15 animals in each group).

[4] = Oral absorbability of rat; assay type: in vivo; settings: plasma; fasted SD male rat; oral 1 mg/kg vs intravenous 0.1 mg/kg; from AUC; read-out: Bioavailability (B.A.)
Protocol: Using a fasted SD male rat (CHARLES RIVER LABORATORIES JAPAN, INC.), under the condition that the compound of the present invention (the compound of Example 38) was solubilized, the plasma concentration after administration in the tail vein at a dose of 0.1 mg/kg and the plasma concentration after gastric gavage administration at a dose of 1 mg/kg were measured. The blood was collected from a rat jugular vein under an unanesthetized condition 5, 15, and 30 minutes, and 1, 2, 3, 4, 6, and 8 hours after intravenous administration, and 15 and 30 minutes, and 1, 2, 3, 4, 6, and 8 hours after oral administration. Then the blood was centrifuged at 3000 rpm for 10 minutes and the supernatant was collected as plasma. The concentration of the compound in plasma was measured with LC/MS/MS (1100 HPLC System (Agilent Co. Ltd.), API 4000 (MDS SCIEX Ltd.)). From the obtained plasma concentration, an area under the curve (AUC, ngh/ml) and a maximum plasma concentration (Cmax, ng/mL) were calculated. In addition, Bioavailability (B.A.) of the compound of the present invention was calculated from AUC in oral administration and AUC in intravenous administration.

Wistar male rat [5] = assay: Inhibitory action on abdominal pain in RCS loading model; assay type: in vivo; settings: oral 1 mg/kg twice a day, RCS 4 days, balloon 0-1.2 mL, versus medium treatment group (FIG. 1)
Excerpt: A Wistar male rat (6 week old at being received) was anesthetized with pentobarbital sodium (Kyoritsu Seiyaku Corporation), its abdomen was incised and the abdominal muscle was exposed, and then Force Transducer (F-12IS-SL (STAR MEDICAL Ltd.)) was fitted. Penicillin was intramuscular administered after the operation, and a recuperative period of 5 days was set.
During from AM 9:00 to PM 5:00 on a 1st day of the initiation of stress loading, the feeding environment temperature was alternately changed to 24° C. and 2° C. in an hour interval, and during from PM 5:00 to AM 9:00 in the next morning, the rat was fed under the environment of 2° C. […]
After RCS was loaded for 4 days, abdominal pain evaluation was performed on a 5th day (10 to 12 animals in each group). […] Contraction of abdominal muscle for extension stimulation in each balloon liquid amount was recorded using the Chart software (Chart v5.0.2. (ADInstruments Inc.)) by passing the signal from the pressure transducer amplified by the amplifier (Windo Gragf (GOULD Inc.)) through the data collection system (PowerLab (ADInstruments Inc.)). During 5 minutes in which balloon extension stimulation was loaded, the number of signals from the pressure transducer in 3 minutes was counted, and the obtained number was regarded as the number of abdominal muscle contraction and set as the index of abdominal pain.

| Ki (MBR) [nM] | bioavailability [4] [%] | Structure (SMILES) | the number of dejection: mean number (Wistar male rat [1]; treatment group 3: intravenous 1 mg/kg, stressor 10 min after administration, counted one hour later) | the number of dejection: mean number (Wistar male rat [2]; intravenous administration 0.01 mg/kg) | the number of dejection: mean number (Wistar male rat [2]; oral administration 1 mg/kg) | the number of dejection: mean number [3] | the number of dejection: mean number (Wistar male rat [1]; treatment group 2: intravenous 0.1 mg/kg, stressor 10 min after administration, counted one hour later) | the number of dejection: mean number (Wistar male rat [1]; treatment group 4: Example 38 intravenous 0.1 mg/kg, then MBR selective agonist (CB34) intravenous 0.1 mg/kg) | number of abdominal muscle contraction (index of abdominal pain) (Wistar male rat [5]) |
| --- | --- | --- | --- | --- | --- | --- | --- | --- | --- |
| – | – | CCCN(CCC)C(=O)c1c(-c2ccc(Cl)cc2)nc2cc(Cl)cc(Cl)n12 [CB34, 5,7-dichloro-2-(4-chlorophenyl)-3-dipropylaminocarbonylimidazo[1,2-a]pyridine, reference compound] | 9.5 | – | – | – | – | – | – |
| 0.08 | 86.9 | COc1cc(Cl)ccc1[C@H]1c2[nH]c3cccc(F)c3c2C2(CC2)CN1C(C)=O [Example 38, (1S)-2-acetyl-1-(4-chloro-2-methoxyphenyl)-5-fluoro-1,2,3,9-tetrahydrospiro[β-carboline-4,1′-cyclopropane]] | – | 8.2 | 6.2 | 7.5 | 7.3 | 10.1 | significantly inhibited |
